Data published in patent US12203103B2, “Selection marker for cell transfection and protein production” (Sanofi, priority 2014, dated 2025).

Legend:
[1] = tested on: CHO 9E4 cell line; assay: Selection of stably transfected CHO 9E4 cells with leflunomide or teriflunomide as selection agent; type: cell-based, Chinese hamster; settings: for Antibody: Less than 10 μg/ml (number of wells) / Antibody: More than 10 μg/ml (number of wells) / % of Occupied / % of Producers / Occupied (number of wells): Teriflunomide 50 μM; for % of Occupied / % of Producers / Occupied (number of wells): 480 wells tested; for Occupied (number of wells): growing clones after 15 to 20 days
Source text: The CHO 9E4 cell line was transfected with two different plasmids bearing the cDNA encoding human DHODH cDNA and the genetic material for production of anti CD38 or 13C3 antibodies (vectors pBH4952 and pBH4967). As a control vector for selection, the plasmid bearing a cDNA encoding human GS cDNA instead of DHODH (pBH3695) was transfected using into CHO 9E4 cell lines. The genetic material was transfected using standard electroporation techniques.
Twenty four hours post transfection, the selection process was started. […] The control vector was equally transfected and submitted to the same selection process.
In each case, 480 wells were seeded with 2000 cells/well.

[2] = tested on: CHO 9E4 cells; settings: MSX 25 μM; 13C3; 960 wells tested; growing clones after 15 to 20 days
[3] = tested on: CHO 9E4 cells; assay: Preliminary culture of CHO 9E4 cells with leflunomide; type: cell-based, Chinese hamster; settings: leflunomide at 50 and 100 μM; preliminary experiments
Procedure: This obtained 27 wells with growing cells. Of these 27, 4 produced low but significant amount 13C3 antibody. However production was unstable and the efficiency was low below 0.1%. These experiments served as proof of principle that DHODH can be used as a selectable marker for recombinant protein production, so further experiments were performed.

C/C(O)=C(\C#N)C(=O)Nc1ccc(C(F)(F)F)cc1 [teriflunomide, (2Z)-2-cyano-3-hydroxy-N-[4-(trifluoromethyl)phenyl]but-2-enamide]
Antibody: Less than 10 μg/ml (number of wells) ([1]; 13C3): 24
Antibody: More than 10 μg/ml (number of wells) ([1]; 13C3): 14
% of Occupied ([1]; 13C3): 8%
% of Producers ([1]; 13C3): 3%
Occupied (number of wells) ([1]; 13C3): 38
Antibody: Less than 10 μg/ml (number of wells) ([1]; anti-CD38): 29
Antibody: More than 10 μg/ml (number of wells) ([1]; anti-CD38): 19
% of Occupied ([1]; anti-CD38): 10%
% of Producers ([1]; anti-CD38): 4%
Occupied (number of wells) ([1]; anti-CD38): 48
growth of cells transfected with control vector ([1]; control vector pBH3695 (human GS), 50 and 100 μM teriflunomide, even after 25 days, 480 wells): no growth was observed in any of the wells
wells with growing cells ([1]; teriflunomide-selected, human DHODH vectors pBH4967 and pBH4952, two weeks later): 8-10%
growth of cells transfected with hamster DHODH vectors ([1]; teriflunomide-selected, vectors pBH4940 and pBH4939): no growth was observed in any of the wells

CS(=N)(=O)CC[C@H](N)C(=O)O (stereo partly drawn) [MSX, L-methionine sulfoximine]
Occupied (number of wells) [2]: 46

Cc1oncc1C(=O)Nc1ccc(C(F)(F)F)cc1 [leflunomide, 5-methyl-N-[4-(trifluoromethyl)phenyl]-isoxazole-4-carboxamide]
effect on CHO 9E4 cell growth [3]: did not kill the cells but inhibited growth
antibody in supernatants of the 480 wells ([1]; leflunomide 50 and 100 μM): none of the supernatants showed detectable amount of antibodies
wells displaying growing clones ([1]; leflunomide 50 and 100 μM, DHODH from human or hamster origin, after 20 days): all the wells were displaying growing clones
